Assay results published in article PMC12406203 (Journal of Medicinal Chemistry, 2025).

Key:
Test in all cases: KINOMEscan
Type in all cases: binding
ABL1-nonphosphorylated = target: T1, ABL1-nonphosphorylated (Homo sapiens, UniProt P00519)
T1 construct: purchased Eurofins DiscoverX, LLC; host or cells: E. coli BL21-derived (T7 phage) or HEK-293
Description: (§1) The kinase inhibition profile of compounds 94 and 95 was assessed against 103 protein kinases by Eurofins DiscoverX, LLC., using the KINOMEscan assay. Kinase-tagged T7 phage strains were grown in parallel in 24-well blocks in an E. coli host derived from the BL21 strain. E. coli were grown to log-phase and infected with T7 phage from a frozen stock (multiplicity of infection = 0.4) and incubated with shaking at 32 °C until lysis (90–150 min). The lysates were centrifuged (6000g) and filtered (0.2 μm) to remove cell debris. The remaining kinases were produced in HEK-293 cells and subsequently tagged with DNA for qPCR detection. […] The liganded beads were blocked with excess biotin and washed with blocking buffer (SeaBlock (Pierce), 1% BSA, 0.05% Tween 20, 1 mM DTT) to remove unbound ligand and to reduce nonspecific phage binding. […] Test compounds were prepared as 100× stocks in 100% DMSO and directly diluted into the assay. All reactions were performed in polypropylene 384-well plates in a final volume of 0.02 mL. […] The kinase concentration in the eluates was measured by qPCR.
(§2) The compound(s) were screened at the concentration(s) requested, and results for primary screen binding interactions are reported as RA (%), where lower numbers indicate stronger hits in the matrix. RA=(testcompoundsignal−PCsignal/NCsignal−PCsignal)×100

BRAF(V600E) = target: T2, BRAF(V600E) (Homo sapiens, UniProt P15056, V600E)
T2 construct: purchased Eurofins DiscoverX, LLC; host or cells: E. coli BL21-derived (T7 phage) or HEK-293
Description: as §1, §2

GSK3B = target: T3, GSK3B (Homo sapiens, UniProt P49841)
T3 construct: purchased Eurofins DiscoverX, LLC; host or cells: E. coli (T7 phage) or HEK-293
Description: as §1, §2

PLK4 = target: T4, PLK4 (Homo sapiens, UniProt O00444)
T4 construct: purchased Eurofins DiscoverX, LLC; host or cells: E. coli BL21-derived host (T7 phage) or HEK-293
T4 sequence (O00444 1-970): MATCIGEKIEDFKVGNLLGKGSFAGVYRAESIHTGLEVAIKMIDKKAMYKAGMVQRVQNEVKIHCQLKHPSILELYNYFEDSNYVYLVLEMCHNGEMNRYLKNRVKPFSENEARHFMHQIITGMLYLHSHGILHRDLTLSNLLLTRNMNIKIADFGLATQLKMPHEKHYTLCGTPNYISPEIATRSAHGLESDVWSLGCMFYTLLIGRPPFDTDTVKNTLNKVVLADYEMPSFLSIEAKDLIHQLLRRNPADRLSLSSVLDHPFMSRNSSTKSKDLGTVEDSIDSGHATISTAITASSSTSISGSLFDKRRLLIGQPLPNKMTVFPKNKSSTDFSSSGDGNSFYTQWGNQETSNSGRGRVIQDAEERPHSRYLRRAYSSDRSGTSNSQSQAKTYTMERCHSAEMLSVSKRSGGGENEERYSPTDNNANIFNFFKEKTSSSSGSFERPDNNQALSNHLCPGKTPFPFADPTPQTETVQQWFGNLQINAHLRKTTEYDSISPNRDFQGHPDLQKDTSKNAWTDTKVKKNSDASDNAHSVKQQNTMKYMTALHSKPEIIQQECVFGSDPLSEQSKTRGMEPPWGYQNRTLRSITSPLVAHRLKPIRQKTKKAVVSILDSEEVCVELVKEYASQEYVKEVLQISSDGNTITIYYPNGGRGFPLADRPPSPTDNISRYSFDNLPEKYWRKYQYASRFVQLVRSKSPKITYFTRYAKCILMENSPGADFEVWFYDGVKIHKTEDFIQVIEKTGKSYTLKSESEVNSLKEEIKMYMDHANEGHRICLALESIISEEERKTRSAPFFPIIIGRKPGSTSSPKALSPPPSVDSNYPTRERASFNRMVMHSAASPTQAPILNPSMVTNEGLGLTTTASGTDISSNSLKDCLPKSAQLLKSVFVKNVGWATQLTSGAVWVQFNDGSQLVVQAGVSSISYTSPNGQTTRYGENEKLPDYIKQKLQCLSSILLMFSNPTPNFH
Description: as §1, §2

SNARK = target: T5, SNARK (Homo sapiens, UniProt Q9H093)
T5 construct: purchased Eurofins DiscoverX, LLC; host or cells: E. coli BL21-derived host (T7 phage) or HEK-293
T5 sequence (Q9H093 1-628): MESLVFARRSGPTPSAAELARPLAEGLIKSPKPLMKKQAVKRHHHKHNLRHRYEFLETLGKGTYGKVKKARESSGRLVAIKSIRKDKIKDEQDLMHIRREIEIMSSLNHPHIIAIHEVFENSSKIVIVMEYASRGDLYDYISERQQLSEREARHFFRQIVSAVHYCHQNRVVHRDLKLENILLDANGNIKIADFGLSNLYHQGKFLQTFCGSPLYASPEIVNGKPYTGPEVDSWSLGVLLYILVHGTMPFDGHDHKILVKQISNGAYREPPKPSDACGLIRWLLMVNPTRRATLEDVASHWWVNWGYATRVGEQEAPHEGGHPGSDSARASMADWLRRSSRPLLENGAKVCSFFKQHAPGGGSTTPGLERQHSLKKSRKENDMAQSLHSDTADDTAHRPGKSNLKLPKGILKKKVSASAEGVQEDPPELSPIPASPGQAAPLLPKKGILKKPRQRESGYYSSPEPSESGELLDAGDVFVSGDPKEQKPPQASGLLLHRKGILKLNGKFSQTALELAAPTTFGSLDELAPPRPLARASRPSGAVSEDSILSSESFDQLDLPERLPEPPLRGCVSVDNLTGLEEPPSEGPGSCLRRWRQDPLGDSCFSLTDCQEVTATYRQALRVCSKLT
Description: as §1, §2

T1 sequence (P00519 whole entry): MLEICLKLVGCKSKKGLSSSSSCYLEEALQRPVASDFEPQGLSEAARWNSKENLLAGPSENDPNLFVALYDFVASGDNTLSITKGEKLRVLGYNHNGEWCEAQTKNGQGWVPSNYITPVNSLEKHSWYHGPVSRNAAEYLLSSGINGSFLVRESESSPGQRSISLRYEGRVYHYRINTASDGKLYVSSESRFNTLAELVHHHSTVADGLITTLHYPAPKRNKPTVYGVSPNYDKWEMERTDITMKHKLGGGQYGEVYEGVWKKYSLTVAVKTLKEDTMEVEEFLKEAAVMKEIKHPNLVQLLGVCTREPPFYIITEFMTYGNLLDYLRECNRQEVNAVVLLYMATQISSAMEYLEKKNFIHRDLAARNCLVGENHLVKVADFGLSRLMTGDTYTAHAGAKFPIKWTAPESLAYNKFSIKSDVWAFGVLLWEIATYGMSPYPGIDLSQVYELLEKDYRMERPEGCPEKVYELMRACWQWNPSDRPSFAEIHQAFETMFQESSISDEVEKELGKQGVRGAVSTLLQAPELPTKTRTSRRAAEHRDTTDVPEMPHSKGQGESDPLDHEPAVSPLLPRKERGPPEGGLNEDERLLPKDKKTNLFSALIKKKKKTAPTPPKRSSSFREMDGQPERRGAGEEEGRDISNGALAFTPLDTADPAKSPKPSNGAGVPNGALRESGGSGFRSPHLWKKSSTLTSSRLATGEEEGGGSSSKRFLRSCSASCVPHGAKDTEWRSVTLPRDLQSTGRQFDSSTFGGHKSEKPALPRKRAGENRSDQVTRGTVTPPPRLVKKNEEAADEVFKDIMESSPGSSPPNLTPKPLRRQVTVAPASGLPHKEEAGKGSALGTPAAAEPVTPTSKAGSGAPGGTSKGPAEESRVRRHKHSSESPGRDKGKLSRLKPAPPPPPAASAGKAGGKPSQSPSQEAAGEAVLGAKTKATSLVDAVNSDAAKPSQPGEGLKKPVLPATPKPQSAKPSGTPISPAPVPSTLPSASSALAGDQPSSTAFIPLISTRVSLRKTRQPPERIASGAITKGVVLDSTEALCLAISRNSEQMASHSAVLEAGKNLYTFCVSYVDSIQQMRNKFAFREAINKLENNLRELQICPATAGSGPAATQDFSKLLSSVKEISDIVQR
T2 sequence (P15056 whole entry V600E): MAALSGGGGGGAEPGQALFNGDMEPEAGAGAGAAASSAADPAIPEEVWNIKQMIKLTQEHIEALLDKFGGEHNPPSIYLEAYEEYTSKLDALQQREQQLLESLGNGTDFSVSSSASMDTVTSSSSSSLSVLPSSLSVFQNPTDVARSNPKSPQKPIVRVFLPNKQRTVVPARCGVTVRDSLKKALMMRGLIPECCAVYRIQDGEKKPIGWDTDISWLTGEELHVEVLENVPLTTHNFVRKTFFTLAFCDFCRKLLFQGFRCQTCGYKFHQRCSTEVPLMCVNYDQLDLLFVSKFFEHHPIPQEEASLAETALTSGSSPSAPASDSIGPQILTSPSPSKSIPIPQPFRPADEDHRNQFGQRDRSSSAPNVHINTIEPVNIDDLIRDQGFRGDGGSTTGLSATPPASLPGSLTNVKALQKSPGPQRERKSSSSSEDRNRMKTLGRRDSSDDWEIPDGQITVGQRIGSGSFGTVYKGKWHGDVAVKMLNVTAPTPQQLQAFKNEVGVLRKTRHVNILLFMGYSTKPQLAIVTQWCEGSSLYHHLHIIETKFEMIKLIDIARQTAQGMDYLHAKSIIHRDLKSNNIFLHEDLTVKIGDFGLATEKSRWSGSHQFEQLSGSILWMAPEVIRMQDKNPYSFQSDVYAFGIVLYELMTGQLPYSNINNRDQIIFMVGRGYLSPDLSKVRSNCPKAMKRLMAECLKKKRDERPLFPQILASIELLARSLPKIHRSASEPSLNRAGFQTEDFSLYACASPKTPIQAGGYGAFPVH
T3 sequence (P49841 whole entry): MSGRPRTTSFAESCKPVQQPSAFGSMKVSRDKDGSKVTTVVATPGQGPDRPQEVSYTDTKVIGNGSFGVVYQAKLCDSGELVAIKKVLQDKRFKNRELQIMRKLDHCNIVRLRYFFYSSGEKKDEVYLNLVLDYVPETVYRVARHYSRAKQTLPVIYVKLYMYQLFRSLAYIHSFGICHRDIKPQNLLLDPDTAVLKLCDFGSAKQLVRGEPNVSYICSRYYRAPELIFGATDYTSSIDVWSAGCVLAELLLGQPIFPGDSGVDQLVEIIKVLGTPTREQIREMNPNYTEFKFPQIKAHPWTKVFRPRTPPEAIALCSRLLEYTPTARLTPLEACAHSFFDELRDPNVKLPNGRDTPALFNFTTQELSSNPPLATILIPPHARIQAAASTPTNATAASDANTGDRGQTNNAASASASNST

Row | Compound | RA @ 1000nM (ABL1-nonphosphorylated) [%] | RA @ 10000nM (ABL1-nonphosphorylated) [%] | RA @ 1000nM (BRAF(V600E)) [%] | RA @ 10000nM (BRAF(V600E)) [%] | RA @ 1000nM (GSK3B) [%] | RA @ 10000nM (GSK3B) [%] | RA @ 1000nM (PLK4) [%] | RA @ 10000nM (PLK4) [%] | RA @ 1000nM (SNARK) [%] | RA @ 10000nM (SNARK) [%]
1 | CC(C)Cn1ncc2cc(Cc3ccc(F)cc3F)c(C(=O)NCCN(C)C)cc21 [Compound 94, 5-(2,4-Difluorobenzyl)-N-(2-(dimethylamino)ethyl)-1-isobutyl-1H-indazole-6-carboxamide] | 85 | 97 | 100 | 100 | 91 | 97 | 100 | 100 | 100 | 93
2 | CN(C)CCNC(=O)c1cc2c(cnn2CC2CCCCC2)cc1Cc1ccc(F)cc1F [Compound 95, 1-(Cyclohexylmethyl)-5-(2,4-difluorobenzyl)-N-(2-(dimethylamino)ethyl)-1H-indazole-6-carboxamide] | 90 | 90 | 98 | 100 | 100 | 80 | 100 | 100 | 93 | 92
